In US12715893B2, “Oxysterol compounds and uses thereof” (MAX BIOPHARMA, INC., priority 2020, dated 2026):

Legend:
[1] = tested on: Hedgehog target gene Gli1; experiment: Expression of Hedgehog target gene Gli1 (quantitative RT-PCR) in M2 cells; format: cell-based; details: 5% FBS in DMEM, 1 μM and 5 μM, vs DMSO control (FIG. 6)
Procedure: (§1) The compounds described herein were tested on cell cultures to assess their effects on the mRNA expression of Hedgehog target genes Gli1. Conditioned medium (CM) was collected from CAPAN-1 human pancreatic tumor cells grown to confluence in DMEM containing 10% fetal bovine serum (FBS) and contains Hh proteins that activate the Hh pathway in cells receiving the CM. After 7 days of incubation of confluent cells with the described medium, CM was collected, spun for 5 minutes at 1800 rpm to remove dead cells and debris, and then frozen at −80° C. For treating cells, CM was thawed and diluted 1:2 to 1:6 with DMEM containing 5% FBS. NIH3T3 cells and M2 cells were cultured in 12-well plates with DMEM containing 10% FBS. The cells were then treated with DMEM containing 5% FBS or CM in the presence or absence of the compounds prepared in DMSO when they reach confluence. Quantitative RT-PCR was then performed according to the following approach. After 72 to 96 hours of the treatments, the cells were lysed and subjected to RNA extraction with RNease Plus Min kit (Qiagen). A portion of RNA from each well was subjected to Reverse Transcription (RT) using iScript Reverse Transcription Supermix (BioRad). QPCR was performed to test the expression of Hh target gene Gli1 using IQ SYBR Green Supermix (BioRad).

[2] = tested on: Hedgehog target gene Gli1; experiment: Expression of Hedgehog target gene Gli1 (quantitative RT-PCR) in NIH3T3 cells; format: cell-based; details: for effect on Hh signaling (relative expression of Gli1) / effect on Gli/Hh signaling in cells treated with Conditioned Medium (relative expression of Gli1): 5 μM and 10 μM; for effect on Hh signaling (relative expression of Gli1): vs DMSO control (FIG. 5); for effect on Gli/Hh signaling in cells treated with Conditioned Medium (relative expression of Gli1): CAPAN-1 conditioned medium (CM), vs CM (FIG. 5, FIG. 7)
Procedure: as §1

[3] = tested on: Hh signaling; details: background statement; Compound 8 in mesenchymal cells; cited from earlier work
[4] = tested on: TGFβ signaling; details: background statement; cited from earlier work
[5] = tested on: Hedgehog target gene Gli1; experiment: Expression of Hedgehog target gene Gli1 (Q-RT-PCR, normalized to Oaz1) in C3H10T1/2 cells; format: cell-based; details: 5 μM and 10 μM, 72 hours (FIG. 9)
Procedure: as §1, with “A portion of RNA from each well was subjected to Reverse Transcription (RT) using iScript Reverse Transcription Supermix (BioRad). QPCR was performed to test the expression of Hh target gene Gli1 using IQ SYBR Green Supermix (BioRad).” left out
In a similar manner, C3H10T1/2 cells were pretreated for 2 hours with Compound 17 in DMEM containing 5% FBS. […] After 72 hours, RNA was extracted and analyzed by Q-RT-PCR for the expression of Hh target gene Gli1 and normalized to Oaz1 expression.

SMILES	effect on Gli signaling (relative expression of Gli1) [1]	effect on Hh signaling [3]	also measured
C[C@]12CC[C@H]3[C@@H](CC=C4C[C@@H](O)CC[C@@]43C)[C@@H]1CC[C@@H]2[C@H](O)CCc1ccc(F)cc1 [Compound 1, (3S,8S,9S,10R,13S,14S,17S)-17-((R)-3-(4-fluorophenyl)-1-hydroxypropyl)-10,13-dimethyl-2,3,4,7,8,9,10,11,12,13,14,15,16,17-tetradecahydro-1H-cyclopenta[a]phenanthren-3-ol]	stimulate Gli signaling	–	effect on Hh signaling (relative expression of Gli1) ([2]; 5% FBS in DMEM): increase Hh signaling
C[C@]12CC[C@H](O)C[C@@H]1CC[C@@H]1[C@@H]2CC[C@]2(C)[C@@H]([C@H](O)CCc3ccc(F)cc3)CC[C@@H]12 [Compound 2, (3S,5S,8R,9S,10S,13S,14S,17S)-17-((R)-3-(4-fluorophenyl)-1-hydroxypropyl)-10,13-dimethylhexadecahydro-1H-cyclopenta[a]phenanthren-3-ol]	–	–	effect on Hh signaling (relative expression of Gli1) ([2]; 5% FBS in DMEM): increase Hh signaling, although Compound 2 to a lesser degree than Compound 1; effect on Gli/Hh signaling in cells treated with Conditioned Medium (relative expression of Gli1) [2]: weak Hh antagonist
C[C@]12CC[C@H](O)C[C@@H]1[C@@H](O)C[C@@H]1[C@@H]2CC[C@]2(C)[C@@H]([C@H](O)CCc3ccc(F)cc3)CC[C@@H]12 [Compound 5, (3S,5S,6S,8S,9S,10R,13S,14S,17S)-17-((R)-3-(4-fluorophenyl)-1-hydroxypropyl)-10,13-dimethylhexadecahydro-1H-cyclopenta[a]phenanthrene-3,6-diol]	stimulate Gli signaling	–	–
CC[C@@](O)(CCc1cccnc1)[C@H]1CC[C@H]2[C@@H]3CC[C@H]4C[C@@H](O)CC[C@]4(C)[C@H]3CC[C@]12C [Compound 6, (3S,5S,8R,9S,10S,13S,14S,17S)-17-((R)-3-hydroxy-1-(pyridin-3-yl)pentan-3-yl)-10,13-dimethylhexadecahydro-1H-cyclopenta[a]phenanthren-3-ol]	–	–	effect on baseline expression of Gli ([2]; 5% FBS in DMEM, 10 μM, vs DMSO control (FIG. 8)): lowers the baseline expression of Gli; effect on Gli/Hh signaling in cells treated with Conditioned Medium (relative expression of Gli1) [2]: inhibits Gli signaling
CC(C)CCC[C@](C)(O)[C@H]1CC[C@H]2[C@@H]3CC=C4C[C@@H](O)CC[C@]4(C)[C@H]3CC[C@@]21C [Compound 8, 20(S)-hydroxycholesterol]	–	induces allosteric activation of Hh signaling	–
CC(C)CC[C@@H](O)[C@](C)(O)[C@H]1CC[C@H]2[C@@H]3CC=C4C[C@@H](O)CC[C@]4(C)[C@H]3CC[C@]12C [Compound 9, 20α,22(R)-dihydroxycholesterol]	–	blocks Hh signaling	–
CCCCCC[C@](C)(O)[C@H]1CC[C@H]2[C@@H]3C[C@H](O)[C@H]4C[C@@H](O)CC[C@]4(C)[C@H]3CC[C@@]21C [Compound 10, (3S,5S,6S,8R,9S,10R,13S,14S,17S)-17-((S)-2-hydroxyoctan-2-yl)-10,13-dimethylhexadecahydro-1H-cyclopenta[a]phenanthrene-3,6-diol, reference compound]	stimulate Gli signaling	Hh activator	–
C[C@]12CC[C@H](O)C[C@@H]1CC[C@@H]1[C@@H]2CC[C@@]2(C)[C@H]1CC[C@@H]2[C@](C)(O)CCc1ccc(F)cc1 [Compound 11, (3S,5S,8R,9S,10S,13S,14S,17S)-17-((R)-4-(4-fluorophenyl)-2-hydroxybutan-2-yl)-10,13-dimethylhexadecahydro-1H-cyclopenta[a]phenanthren-3-ol]	–	Hh inhibitors	–
C[C@]12CC[C@H]3[C@@H](CC=C4C[C@@H](O)CC[C@@]43C)[C@@H]1CC[C@@H]2[C@](C)(O)CCc1cccnc1 [Compound 12, (3S,8S,9S,10R,13S,14S,17S)-17-((R)-2-hydroxy-4-(pyridin-3-yl)butan-2-yl)-10,13-dimethyl-2,3,4,7,8,9,10,11,12,13,14,15,16,17-tetradecahydro-1H-cyclopenta[a]phenanthren-3-ol]	–	Hh inhibitors	effect on TGFβ signaling [4]: blocks TGFβ signaling
C[C@]12CC[C@H](O)C[C@@H]1CC[C@@H]1[C@@H]2CC[C@]2(C)[C@@H](C(CCc3ccc(F)cc3)=NO)CC[C@@H]12 [Compound 17, 3-(4-fluorophenyl)-1-((3S,5S,8R,9S,10S,13S,14S,17S)-3-hydroxy-10,13-dimethylhexadecahydro-1H-cyclopenta[a]phenanthren-17-yl)propan-1-one oxime]	–	–	effect on Hh signaling (relative expression of Gli1) ([5]; 5% FBS in DMEM): activator of Hh signaling; effect on conditioned medium induced Gli1 expression ([5]; CAPAN-1 CM, 2 hours pretreatment): further enhances the conditioned medium induced Gli1 expression
